The Ki is a measure of affinity in units of concentration, obtained from inhibition or displacement. By pKi is commonly meant the negative decadic logarithm of the Ki, by convention in mol/L. A high value points to a small Ki.

The values that follow come from patent US20050239874A1, “Novel analgesic and immunomodulatory cannabinoids” (University of Connecticut, priority 1998, published 2005).

One assay deals with T1, CB1 receptor (Rattus norvegicus, UniProt P20272).
T1 construct: using rat forebrain membranes as a source of CB1; from tissue; host or cells: rat forebrain (whole brain minus cerebral cortex) membranes
T1 sequence (P20272 whole entry): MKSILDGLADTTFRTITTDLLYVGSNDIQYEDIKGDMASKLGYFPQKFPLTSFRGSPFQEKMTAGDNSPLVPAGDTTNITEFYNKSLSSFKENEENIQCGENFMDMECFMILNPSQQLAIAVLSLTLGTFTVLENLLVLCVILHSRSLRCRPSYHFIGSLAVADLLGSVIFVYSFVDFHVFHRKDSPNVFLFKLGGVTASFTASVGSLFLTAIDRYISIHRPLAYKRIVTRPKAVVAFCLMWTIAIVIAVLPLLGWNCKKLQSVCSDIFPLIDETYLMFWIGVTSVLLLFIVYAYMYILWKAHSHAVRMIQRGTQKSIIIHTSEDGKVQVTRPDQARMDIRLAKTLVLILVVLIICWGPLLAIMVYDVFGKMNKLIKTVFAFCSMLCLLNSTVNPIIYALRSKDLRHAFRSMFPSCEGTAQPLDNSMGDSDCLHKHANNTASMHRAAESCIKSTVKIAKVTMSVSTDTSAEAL
Put plainly: Radioligand binding assay ([3H]CP-55,940 displacement), rat forebrain membranes as source of CB1. The conditions noted are these: for Ki: rat forebrain membranes, 0.8 nM [3H]CP-55,940, Ki from IC50 by Cheng and Prusoff; for pKi: Ki for the CB1 receptor, refers to Example 2. On the procedure: The binding affinities of the novel compounds described in this invention for the central cannabinoid receptor was assessed using rat forebrain membranes as a source of CB1. Membranes were prepared as described by the method of Dodd et al., Brain Res. 226:107 (1981), the entire teachings of which are incorporated herein by reference. Rat whole brains minus the cerebral cortex were diced with a razor blade and homogenized in 0.32 M sucrose, pH 7.4. The resulting suspension was spun at 400×g at 4° C. The supernatant was decanted and layered over 1.2 M sucrose in TME buffer (25 mM Tris base, 5 mM MgCl2 1 mMEDTA, pH 7.4) and spun at 109,000×g. The interface containing plasma membrane protein was collected, pooled and layered over 0.8 M sucrose in TME, pH 7.4. The pellet was carefully resuspended in TME, pH 7.4 and the total protein content was assayed by the method of Markwell et al., Anal. Biochem. 87:206 (1978), the entire teachings of which are incorporated herein by reference. Protein was aliquotted, frozen under liquid nitrogen and stored at −80° C. until use.
(§1) Approximately 30 μg of tissue was incubated in silanized 96 well microtiter plate with TME containing 0.1% essentially fatty acid free bovine serum albumin (BSA), 0.8 nM CH^3]CP-55,940 and various concentrations of the test compound in a final volume of 200 μL. Assays were incubated at 30° C. for 1 hour. The samples were filtered using Packard Filtermate 196 and Whatman GF/C Filterplates and washed with wash buffer (TME) containing 0.5% BSA. Radioactivity was detected using MicroScint 20 scintillation cocktail added directly to the dried filterplates, and the filterplates were counted using a Packard Instruments Top-Count. Nonspecific binding was assessed using 100 nM CP-55,940. Data collected from three independent experiments performed with duplicate determinations were normalized between 100% and 0% specific binding for [H^3]CP-55,940, determined using buffer and 100 nM CP-55,940. The normalized data was analyzed using a 4 parameter nonlinear logistic equation to yield IC50 values. Data from at least two independent experiments performed in duplicate were used to calculate IC50 values which were convered to Ki values using the assumptions of Cheng and Prusoff, Biochem. Pharmacol., 22:3099 (1973), the entire teachings of which are incorporated herein by reference.

Another assay has as its target T2, CB2 receptor (Mus musculus, UniProt P47936).
T2 construct: Mouse spleen was used a source of CB2 receptors; from tissue; host or cells: mouse spleen
Put plainly: Radioligand binding assay ([3H]CP-55,940 displacement), mouse spleen as source of CB2. The note with it: for Ki: mouse spleen, [3H]CP-55,940, Ki from IC50 by Cheng and Prusoff; for selectivity for the CB2 receptor: CB2 over CB1, statement in words; for pKi: Ki for the CB2 receptor, refers to Example 2. On the procedure: as §1
Mouse spleen was used a source of CB2 receptors to assess binding affinity of analogs described in this invention. The CB2 binding assay was conducted in the same manner as for CB1. Silanized centrifuge tubes were used throughout to minimize receptor loss due to adsorption.

The mark [1] stands for this setting: read-out: Ki in nM for the CB1 Receptor.

pKi: −log10 of the molar value. Read-outs that look alike come from different tables or passages of the source. Where only a bound is given, the exact number is not on record here.

T2 sequence (P47936 whole entry): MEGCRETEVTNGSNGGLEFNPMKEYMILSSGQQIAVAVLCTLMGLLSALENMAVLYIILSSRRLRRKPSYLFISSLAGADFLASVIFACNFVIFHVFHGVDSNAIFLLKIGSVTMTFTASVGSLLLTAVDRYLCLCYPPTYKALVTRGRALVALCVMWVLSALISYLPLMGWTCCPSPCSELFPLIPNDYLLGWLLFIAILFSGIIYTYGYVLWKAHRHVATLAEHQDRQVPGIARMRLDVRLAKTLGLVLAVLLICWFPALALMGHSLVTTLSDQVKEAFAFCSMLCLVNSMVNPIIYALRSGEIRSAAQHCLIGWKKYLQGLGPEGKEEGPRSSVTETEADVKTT

Take `CC1=CC[C@@H]2[C@@H](C1)c1c(O)cc(C34CC5CC(CC(C5)C3)C4)cc1OC2(C)C` [AM411]: the “selectivity for the CB1 receptor” value at CB1 receptor (CB1 over CB2, statement in words) is reported as “selective agonists”. In addition, the Ki on CB1 receptor (setting [1]) was 6.9 nM; at CB2 receptor (read-out: Ki in nM for the CB2 Receptor) it was 52 nM.
Take `CC1=CC[C@@H]2[C@@H](C1)c1c(O)cc(C3CC4CCC3(C)C4(C)C)cc1OC2(C)C` (stereo partly shown) [AM731]: the Ki on CB1 receptor (Ki in nM for the CB1 Receptor) is 60.6 nM. In addition, on CB2 receptor, the “selectivity for the CB2 receptor” value is reported as “selective agonists” and the pKi is more than 8.00. For the same compound, the affinity on CB2 receptor (Ki in nM for the CB2 Receptor) corresponds to a Ki of 6.1 nM.
As for `CC1=CC[C@@H]2[C@@H](C1)c1c(O)cc(C3CC4CCC3(C)C4(C)C)cc1OC2(C)C` (stereo partly shown) [AM732], the figures for the Ki at CB1 receptor (Ki in nM for the CB1 Receptor) and on CB2 receptor (Ki in nM for the CB2 Receptor) were 20.1 nM and 2 nM, respectively. In addition, the “selectivity for the CB2 receptor” value at CB2 receptor is listed as “selective agonists”.
Take `CCCCCCC1(c2cc(O)c3c(c2)OC(C)(C)[C@@H]2CC=C(C)C[C@@H]32)SCCS1` [AMG3]: the pKi on CB1 receptor is more than 9.00. Moreover, the Ki on CB1 receptor (setting [1]) stood at 0.32 nM; at CB2 receptor (Ki in nM for the CB2 Receptor), 1.7 nM.
For `CCCCCCC1(c2cc(O)c3c(c2)OC(C)(C)[C@@H]2CC=C(C)C[C@@H]32)OCCO1` [AMG14], at CB1 receptor, the pKi was more than 9.00. At CB1 receptor (Ki in nM for the CB1 Receptor), this compound yielded a Ki of 0.2 nM.
`CCCCCc1cc(O)c2c(c1)OC(C)(C)[C@@H]1CC=C(C)C[C@@H]21` [Δ^8-tetrahydrocannabinol, reference compound] showed a pKi on CB2 receptor of 7.85.
